Results taken from ChEMBL document CHEMBL3991601, “The target landscape of clinical kinase drugs” (Science, 2017).
Activity calls are given as the source filed them. Cut-off read from the data, not from the text of the source, for most assays here: actives have a measured Kd and inactives only a lower limit.

Target: Receptor-interacting serine/threonine-protein kinase 2 (Homo sapiens, UniProt O43353)
Note: in the data inactive means no Kd found up to 30 µM.

Chain of Receptor-interacting serine/threonine-protein kinase 2 (O43353 whole entry): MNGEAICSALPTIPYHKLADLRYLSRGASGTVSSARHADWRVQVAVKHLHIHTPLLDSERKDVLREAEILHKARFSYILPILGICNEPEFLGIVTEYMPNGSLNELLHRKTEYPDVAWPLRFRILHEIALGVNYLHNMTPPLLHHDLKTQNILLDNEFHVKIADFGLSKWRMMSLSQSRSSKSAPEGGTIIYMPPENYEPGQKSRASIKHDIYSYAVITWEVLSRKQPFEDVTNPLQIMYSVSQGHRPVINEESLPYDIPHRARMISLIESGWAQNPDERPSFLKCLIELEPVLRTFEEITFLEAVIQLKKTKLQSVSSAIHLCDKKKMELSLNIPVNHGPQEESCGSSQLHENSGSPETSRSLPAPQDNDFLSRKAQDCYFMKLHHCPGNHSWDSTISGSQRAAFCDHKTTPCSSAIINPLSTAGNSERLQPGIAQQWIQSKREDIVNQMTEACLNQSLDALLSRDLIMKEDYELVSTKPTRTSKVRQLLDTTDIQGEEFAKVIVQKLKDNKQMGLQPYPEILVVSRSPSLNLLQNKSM

Structure (SMILES)	Kd
O=c1sn(-c2cccc3ccccc23)c(=O)n1Cc1ccccc1 [TIDEGLUSIB]	> 30 µM (inactive)
CC(=O)Nc1cccc(-n2c(=O)n(C3CC3)c(=O)c3c(Nc4ccc(I)cc4F)n(C)c(=O)c(C)c32)c1 [TRAMETINIB]	> 30 µM (inactive)
CN1N=C(N)c2cn([C@@H]3O[C@H](COP(=O)(O)O)[C@@H](O)[C@H]3O)c3ncnc1c23 [TRICIRIBINE PHOSPHATE]	> 30 µM (inactive)

Target: Tyrosine-protein kinase HCK (Homo sapiens, UniProt P08631)
Sequence (P08631 whole entry): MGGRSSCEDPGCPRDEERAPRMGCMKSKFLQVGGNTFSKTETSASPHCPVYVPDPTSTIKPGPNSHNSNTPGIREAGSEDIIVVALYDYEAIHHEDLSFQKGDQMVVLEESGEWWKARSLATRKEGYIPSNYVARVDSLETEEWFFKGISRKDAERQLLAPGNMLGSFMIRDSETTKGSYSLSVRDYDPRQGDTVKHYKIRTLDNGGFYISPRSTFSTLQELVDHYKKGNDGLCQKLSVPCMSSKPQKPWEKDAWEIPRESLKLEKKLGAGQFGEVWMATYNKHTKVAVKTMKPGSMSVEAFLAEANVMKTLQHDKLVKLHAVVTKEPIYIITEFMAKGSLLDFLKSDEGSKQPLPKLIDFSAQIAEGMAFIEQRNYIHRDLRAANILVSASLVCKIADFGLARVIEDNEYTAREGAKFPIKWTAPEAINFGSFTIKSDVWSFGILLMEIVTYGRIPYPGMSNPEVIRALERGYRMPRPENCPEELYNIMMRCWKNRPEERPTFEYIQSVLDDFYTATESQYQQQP

Structure (SMILES)	Kd
O=c1sn(-c2cccc3ccccc23)c(=O)n1Cc1ccccc1 [TIDEGLUSIB]	> 30 µM (inactive)
CC(=O)Nc1cccc(-n2c(=O)n(C3CC3)c(=O)c3c(Nc4ccc(I)cc4F)n(C)c(=O)c(C)c32)c1 [TRAMETINIB]	> 30 µM (inactive)
CN1N=C(N)c2cn([C@@H]3O[C@H](COP(=O)(O)O)[C@@H](O)[C@H]3O)c3ncnc1c23 [TRICIRIBINE PHOSPHATE]	> 30 µM (inactive)

Target: T1, Mitogen-activated protein kinase kinase kinase kinase 2 (Homo sapiens, UniProt Q12851)
T1 sequence (Q12851 whole entry): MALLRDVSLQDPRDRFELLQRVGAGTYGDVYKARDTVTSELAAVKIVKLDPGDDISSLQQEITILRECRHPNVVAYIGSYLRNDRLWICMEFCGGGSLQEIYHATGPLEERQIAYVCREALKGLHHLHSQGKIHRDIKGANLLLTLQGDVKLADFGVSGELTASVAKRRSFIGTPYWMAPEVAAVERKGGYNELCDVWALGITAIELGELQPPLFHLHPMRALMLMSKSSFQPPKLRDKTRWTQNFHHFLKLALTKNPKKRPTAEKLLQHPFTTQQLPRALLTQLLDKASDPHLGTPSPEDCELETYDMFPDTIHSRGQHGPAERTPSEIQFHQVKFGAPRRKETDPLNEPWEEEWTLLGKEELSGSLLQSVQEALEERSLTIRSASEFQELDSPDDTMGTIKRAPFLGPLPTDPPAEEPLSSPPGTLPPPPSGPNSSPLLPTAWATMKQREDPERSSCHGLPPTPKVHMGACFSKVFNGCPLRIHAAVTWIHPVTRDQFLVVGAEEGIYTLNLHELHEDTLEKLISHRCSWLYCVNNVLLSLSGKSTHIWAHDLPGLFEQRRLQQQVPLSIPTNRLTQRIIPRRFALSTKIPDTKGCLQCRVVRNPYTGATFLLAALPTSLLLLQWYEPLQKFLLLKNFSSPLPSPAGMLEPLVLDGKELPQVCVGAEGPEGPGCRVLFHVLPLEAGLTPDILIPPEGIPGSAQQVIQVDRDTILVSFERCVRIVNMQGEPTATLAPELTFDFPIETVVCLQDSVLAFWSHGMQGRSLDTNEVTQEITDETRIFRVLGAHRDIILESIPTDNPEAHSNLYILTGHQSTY

Structure (SMILES)	Kd
O=c1sn(-c2cccc3ccccc23)c(=O)n1Cc1ccccc1 [TIDEGLUSIB]	> 30 µM (inactive)
CC(=O)Nc1cccc(-n2c(=O)n(C3CC3)c(=O)c3c(Nc4ccc(I)cc4F)n(C)c(=O)c(C)c32)c1 [TRAMETINIB]	> 30 µM (inactive)
CN1N=C(N)c2cn([C@@H]3O[C@H](COP(=O)(O)O)[C@@H](O)[C@H]3O)c3ncnc1c23 [TRICIRIBINE PHOSPHATE]	> 30 µM (inactive)

Target: Protein kinase C delta type (Homo sapiens, UniProt Q05655)
Sequence (Q05655 whole entry): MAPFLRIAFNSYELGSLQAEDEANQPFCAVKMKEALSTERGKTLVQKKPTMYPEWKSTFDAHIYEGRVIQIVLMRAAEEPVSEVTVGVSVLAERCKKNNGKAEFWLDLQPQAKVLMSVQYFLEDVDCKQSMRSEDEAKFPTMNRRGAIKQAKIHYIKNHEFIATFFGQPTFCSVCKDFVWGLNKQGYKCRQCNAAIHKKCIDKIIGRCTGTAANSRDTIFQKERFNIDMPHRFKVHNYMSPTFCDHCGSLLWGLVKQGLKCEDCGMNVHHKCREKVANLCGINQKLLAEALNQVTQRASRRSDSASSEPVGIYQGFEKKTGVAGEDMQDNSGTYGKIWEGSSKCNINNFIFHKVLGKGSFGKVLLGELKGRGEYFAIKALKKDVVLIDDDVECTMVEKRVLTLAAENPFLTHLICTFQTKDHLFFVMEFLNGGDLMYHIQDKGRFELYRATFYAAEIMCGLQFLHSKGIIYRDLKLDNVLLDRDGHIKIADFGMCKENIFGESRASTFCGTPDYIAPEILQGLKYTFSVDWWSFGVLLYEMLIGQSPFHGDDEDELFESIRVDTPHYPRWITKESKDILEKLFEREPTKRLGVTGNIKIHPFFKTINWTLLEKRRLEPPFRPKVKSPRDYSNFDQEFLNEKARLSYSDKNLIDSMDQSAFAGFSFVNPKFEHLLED

Structure (SMILES)	Kd
O=c1sn(-c2cccc3ccccc23)c(=O)n1Cc1ccccc1 [TIDEGLUSIB]	> 30 µM (inactive)
CC(=O)Nc1cccc(-n2c(=O)n(C3CC3)c(=O)c3c(Nc4ccc(I)cc4F)n(C)c(=O)c(C)c32)c1 [TRAMETINIB]	> 30 µM (inactive)
CN1N=C(N)c2cn([C@@H]3O[C@H](COP(=O)(O)O)[C@@H](O)[C@H]3O)c3ncnc1c23 [TRICIRIBINE PHOSPHATE]	> 30 µM (inactive)

Target: T2, Serine/threonine-protein kinase Nek2 (Homo sapiens, UniProt P51955)
T2 sequence (P51955 whole entry): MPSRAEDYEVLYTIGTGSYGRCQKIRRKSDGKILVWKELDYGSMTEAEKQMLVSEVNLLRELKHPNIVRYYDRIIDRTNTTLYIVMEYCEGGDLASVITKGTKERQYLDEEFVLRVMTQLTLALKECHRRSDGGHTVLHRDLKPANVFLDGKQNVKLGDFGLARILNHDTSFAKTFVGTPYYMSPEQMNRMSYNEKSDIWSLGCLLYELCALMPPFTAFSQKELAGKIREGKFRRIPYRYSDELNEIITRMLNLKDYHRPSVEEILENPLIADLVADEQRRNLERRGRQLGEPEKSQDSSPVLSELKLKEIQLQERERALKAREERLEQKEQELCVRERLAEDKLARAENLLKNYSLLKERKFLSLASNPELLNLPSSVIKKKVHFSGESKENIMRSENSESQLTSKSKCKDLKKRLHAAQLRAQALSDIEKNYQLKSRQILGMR

Structure (SMILES)	Kd
O=c1sn(-c2cccc3ccccc23)c(=O)n1Cc1ccccc1 [TIDEGLUSIB]	> 30 µM (inactive)
CC(=O)Nc1cccc(-n2c(=O)n(C3CC3)c(=O)c3c(Nc4ccc(I)cc4F)n(C)c(=O)c(C)c32)c1 [TRAMETINIB]	> 30 µM (inactive)
CN1N=C(N)c2cn([C@@H]3O[C@H](COP(=O)(O)O)[C@@H](O)[C@H]3O)c3ncnc1c23 [TRICIRIBINE PHOSPHATE]	> 30 µM (inactive)

Target: Cyclin-dependent kinase 3 (Homo sapiens, UniProt Q00526)
Sequence (Q00526 whole entry): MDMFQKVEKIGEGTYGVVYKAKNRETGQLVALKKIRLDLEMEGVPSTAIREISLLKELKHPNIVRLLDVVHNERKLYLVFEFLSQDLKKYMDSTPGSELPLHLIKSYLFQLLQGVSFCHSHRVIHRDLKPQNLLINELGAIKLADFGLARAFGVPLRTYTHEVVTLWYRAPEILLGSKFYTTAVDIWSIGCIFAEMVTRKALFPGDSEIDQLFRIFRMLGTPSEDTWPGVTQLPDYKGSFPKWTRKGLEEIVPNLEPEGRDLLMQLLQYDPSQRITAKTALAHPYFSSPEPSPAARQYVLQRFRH

Structure (SMILES)	Kd
O=c1sn(-c2cccc3ccccc23)c(=O)n1Cc1ccccc1 [TIDEGLUSIB]	> 30 µM (inactive)
CC(=O)Nc1cccc(-n2c(=O)n(C3CC3)c(=O)c3c(Nc4ccc(I)cc4F)n(C)c(=O)c(C)c32)c1 [TRAMETINIB]	> 30 µM (inactive)
CN1N=C(N)c2cn([C@@H]3O[C@H](COP(=O)(O)O)[C@@H](O)[C@H]3O)c3ncnc1c23 [TRICIRIBINE PHOSPHATE]	> 30 µM (inactive)

Target: Midasin (Homo sapiens, UniProt Q9NU22)

Structure (SMILES)	Kd
O=c1sn(-c2cccc3ccccc23)c(=O)n1Cc1ccccc1 [TIDEGLUSIB]	> 30 µM (inactive)
CC(=O)Nc1cccc(-n2c(=O)n(C3CC3)c(=O)c3c(Nc4ccc(I)cc4F)n(C)c(=O)c(C)c32)c1 [TRAMETINIB]	> 30 µM (inactive)
CN1N=C(N)c2cn([C@@H]3O[C@H](COP(=O)(O)O)[C@@H](O)[C@H]3O)c3ncnc1c23 [TRICIRIBINE PHOSPHATE]	> 30 µM (inactive)

Target: Mitogen-activated protein kinase 7 (Homo sapiens, UniProt Q13164)
Sequence (Q13164 whole entry): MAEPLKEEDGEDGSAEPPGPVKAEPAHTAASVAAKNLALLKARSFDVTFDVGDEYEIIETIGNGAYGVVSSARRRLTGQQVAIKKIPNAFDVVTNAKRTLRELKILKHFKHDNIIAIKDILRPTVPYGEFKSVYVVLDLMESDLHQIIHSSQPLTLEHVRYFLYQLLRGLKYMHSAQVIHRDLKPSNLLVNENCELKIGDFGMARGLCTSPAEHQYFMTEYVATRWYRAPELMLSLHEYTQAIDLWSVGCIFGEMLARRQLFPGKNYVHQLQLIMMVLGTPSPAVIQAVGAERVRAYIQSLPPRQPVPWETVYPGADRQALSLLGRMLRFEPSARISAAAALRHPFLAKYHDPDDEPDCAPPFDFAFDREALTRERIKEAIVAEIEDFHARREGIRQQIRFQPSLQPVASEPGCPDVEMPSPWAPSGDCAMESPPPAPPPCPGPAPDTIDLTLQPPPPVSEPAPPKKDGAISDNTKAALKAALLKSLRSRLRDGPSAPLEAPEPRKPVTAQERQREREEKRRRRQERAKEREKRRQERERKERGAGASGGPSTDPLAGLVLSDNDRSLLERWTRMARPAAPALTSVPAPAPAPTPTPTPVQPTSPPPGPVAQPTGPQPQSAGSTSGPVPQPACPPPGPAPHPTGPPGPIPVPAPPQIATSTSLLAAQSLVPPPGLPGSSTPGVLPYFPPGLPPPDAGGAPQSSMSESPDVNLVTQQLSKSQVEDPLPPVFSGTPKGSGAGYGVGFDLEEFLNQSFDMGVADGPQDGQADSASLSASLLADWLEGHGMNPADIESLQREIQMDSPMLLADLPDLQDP

Structure (SMILES)	Kd
O=c1sn(-c2cccc3ccccc23)c(=O)n1Cc1ccccc1 [TIDEGLUSIB]	> 30 µM (inactive)
CC(=O)Nc1cccc(-n2c(=O)n(C3CC3)c(=O)c3c(Nc4ccc(I)cc4F)n(C)c(=O)c(C)c32)c1 [TRAMETINIB]	> 30 µM (inactive)
CN1N=C(N)c2cn([C@@H]3O[C@H](COP(=O)(O)O)[C@@H](O)[C@H]3O)c3ncnc1c23 [TRICIRIBINE PHOSPHATE]	> 30 µM (inactive)

Target: T3, Serine/threonine-protein kinase LATS1 (Homo sapiens, UniProt O95835)
T3 sequence (O95835 whole entry): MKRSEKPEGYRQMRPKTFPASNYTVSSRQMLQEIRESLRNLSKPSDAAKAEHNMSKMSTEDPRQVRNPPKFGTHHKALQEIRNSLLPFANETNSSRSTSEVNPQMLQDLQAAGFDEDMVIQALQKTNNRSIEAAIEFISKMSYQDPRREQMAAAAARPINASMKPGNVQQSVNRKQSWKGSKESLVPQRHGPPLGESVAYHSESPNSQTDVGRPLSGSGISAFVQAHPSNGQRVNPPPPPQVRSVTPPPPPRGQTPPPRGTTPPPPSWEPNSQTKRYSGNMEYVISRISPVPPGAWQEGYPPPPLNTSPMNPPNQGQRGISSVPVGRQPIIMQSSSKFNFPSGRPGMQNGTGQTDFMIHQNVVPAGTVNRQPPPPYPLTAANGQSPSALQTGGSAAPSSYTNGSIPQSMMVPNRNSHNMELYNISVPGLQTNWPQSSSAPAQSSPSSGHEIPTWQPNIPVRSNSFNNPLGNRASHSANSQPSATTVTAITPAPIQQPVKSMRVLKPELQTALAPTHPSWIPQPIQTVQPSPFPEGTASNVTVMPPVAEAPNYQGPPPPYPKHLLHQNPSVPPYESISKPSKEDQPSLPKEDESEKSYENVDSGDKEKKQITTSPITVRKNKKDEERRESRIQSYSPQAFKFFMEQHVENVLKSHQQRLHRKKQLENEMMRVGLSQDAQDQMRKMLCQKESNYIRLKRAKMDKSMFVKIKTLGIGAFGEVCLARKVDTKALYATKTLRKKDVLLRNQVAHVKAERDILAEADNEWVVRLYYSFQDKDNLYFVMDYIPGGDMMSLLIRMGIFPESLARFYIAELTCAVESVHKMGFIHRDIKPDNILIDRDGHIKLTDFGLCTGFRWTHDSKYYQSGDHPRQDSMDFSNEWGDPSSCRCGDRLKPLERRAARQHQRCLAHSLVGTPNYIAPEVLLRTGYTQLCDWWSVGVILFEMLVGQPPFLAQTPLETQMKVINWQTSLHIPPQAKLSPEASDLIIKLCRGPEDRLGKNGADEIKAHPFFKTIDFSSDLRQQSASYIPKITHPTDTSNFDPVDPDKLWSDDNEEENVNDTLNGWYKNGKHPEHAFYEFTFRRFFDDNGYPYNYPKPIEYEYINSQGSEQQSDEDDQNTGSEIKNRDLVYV

Structure (SMILES)	Kd
O=c1sn(-c2cccc3ccccc23)c(=O)n1Cc1ccccc1 [TIDEGLUSIB]	> 30 µM (inactive)
CC(=O)Nc1cccc(-n2c(=O)n(C3CC3)c(=O)c3c(Nc4ccc(I)cc4F)n(C)c(=O)c(C)c32)c1 [TRAMETINIB]	> 30 µM (inactive)
CN1N=C(N)c2cn([C@@H]3O[C@H](COP(=O)(O)O)[C@@H](O)[C@H]3O)c3ncnc1c23 [TRICIRIBINE PHOSPHATE]	> 30 µM (inactive)

Target: LIM domain kinase 2 (Homo sapiens, UniProt P53671)
Sequence (P53671 whole entry, the tested form may be a part): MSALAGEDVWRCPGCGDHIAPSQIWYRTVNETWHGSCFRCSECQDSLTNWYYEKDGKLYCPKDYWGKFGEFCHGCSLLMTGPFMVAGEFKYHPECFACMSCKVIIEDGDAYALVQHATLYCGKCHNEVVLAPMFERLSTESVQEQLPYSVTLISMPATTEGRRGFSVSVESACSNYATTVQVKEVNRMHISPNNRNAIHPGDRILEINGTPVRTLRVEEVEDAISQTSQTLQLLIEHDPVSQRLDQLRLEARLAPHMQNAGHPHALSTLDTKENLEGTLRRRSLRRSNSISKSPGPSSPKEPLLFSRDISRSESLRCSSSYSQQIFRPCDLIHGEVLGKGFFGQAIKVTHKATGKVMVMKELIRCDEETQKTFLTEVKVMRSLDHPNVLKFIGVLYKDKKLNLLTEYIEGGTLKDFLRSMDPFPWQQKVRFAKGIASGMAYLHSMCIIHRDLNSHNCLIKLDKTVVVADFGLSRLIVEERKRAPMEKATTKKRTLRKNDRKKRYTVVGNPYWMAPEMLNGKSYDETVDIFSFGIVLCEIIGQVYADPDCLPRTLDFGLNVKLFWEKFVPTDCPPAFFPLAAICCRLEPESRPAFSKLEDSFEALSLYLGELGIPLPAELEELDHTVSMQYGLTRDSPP

Structure (SMILES)	Kd
O=c1sn(-c2cccc3ccccc23)c(=O)n1Cc1ccccc1 [TIDEGLUSIB]	> 30 µM (inactive)
CC(=O)Nc1cccc(-n2c(=O)n(C3CC3)c(=O)c3c(Nc4ccc(I)cc4F)n(C)c(=O)c(C)c32)c1 [TRAMETINIB]	> 30 µM (inactive)
CN1N=C(N)c2cn([C@@H]3O[C@H](COP(=O)(O)O)[C@@H](O)[C@H]3O)c3ncnc1c23 [TRICIRIBINE PHOSPHATE]	> 30 µM (inactive)
